Reference: PubChem BioAssay AID1053140 (Broad Institute, 2014)
Activity calls are given as the source filed them.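 How the source made its calls: active means cell killing, with AC50 under 10 µM and within twice the top valid dose; inactive means effect in the opposite direction, and the rest.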

System: A549 viability, CellTiter-Glo ATP luminescence, 72 h
Experiment: viability loss in A549 lung cells – cell-based, ATP luminescence, dry powder, set 16, cytotoxicity control, dose response (AID 1053140)
Conditions: not given

| SMILES | AC50 |
| --- | --- |
| CO[C@H]1CN(C)C(=O)c2cc(Nc3c(NC4CCCC4)c(=O)c3=O)ccc2OC[C@H](C)N(Cc2ccc(-c3ccccn3)cc2)C[C@@H]1C | > 100 µM (inactive) |
| CO[C@H]1CN(C)C(=O)c2cc(Nc3c(NC(C)C)c(=O)c3=O)ccc2OC[C@H](C)N(Cc2ccc(-c3ccccn3)cc2)C[C@@H]1C | 45.3 µM |
| CO[C@H]1CN(C)C(=O)c2cc(NC(=O)C(C)C)ccc2OC[C@H](C)N(Cc2ccc(-c3ccccn3)cc2)C[C@@H]1C | > 100 µM (inactive) |
| CCC(CC)Nc1c(Nc2ccc3c(c2)C(=O)N(C)C[C@H](OC)[C@@H](C)CN(Cc2ccc(-c4ccccn4)cc2)[C@@H](C)CO3)c(=O)c1=O | 43.7 µM |
| CO[C@H]1CN(C)C(=O)c2cc(NC(=O)NC(C)C)ccc2OC[C@H](C)N(Cc2ccc(-c3cccnc3)cc2)C[C@@H]1C | 45.7 µM |
| CO[C@H]1CN(C)C(=O)c2cc(Nc3c(NC4CCCCC4)c(=O)c3=O)ccc2OC[C@H](C)N(Cc2ccc(-c3ccccn3)cc2)C[C@@H]1C | 36.8 µM |
| CO[C@H]1CN(C)C(=O)c2cc(NC(=O)NC(C)C)ccc2OC[C@H](C)N(Cc2ccccn2)C[C@@H]1C | > 100 µM (inactive) |
| CO[C@H]1CN(C)C(=O)c2cc(NC(=O)NC(C)C)ccc2OC[C@H](C)N(C(=O)Nc2ccc(-c3ccccn3)cc2)C[C@@H]1C | > 100 µM (inactive) |
| CO[C@H]1CN(C)C(=O)c2cc(NC(=O)OC(C)C)ccc2OC[C@H](C)N(Cc2ccc(-c3ccccn3)cc2)C[C@@H]1C | > 100 µM (inactive) |
| CO[C@H]1CN(C)C(=O)c2cc(Nc3c(NC4CC4)c(=O)c3=O)ccc2OC[C@H](C)N(Cc2ccc(-c3ccccn3)cc2)C[C@@H]1C | 25.2 µM |
| CO[C@H]1CN(C)C(=O)c2cc(Nc3ncccn3)ccc2OC[C@H](C)N(Cc2ccc(-c3ccccn3)cc2)C[C@@H]1C | > 100 µM (inactive) |
| CO[C@H]1CN(C)C(=O)c2cc(NC(=O)NC(C)C)ccc2OC[C@H](C)N(Cc2ccc(-c3cncnc3)cc2)C[C@@H]1C | > 100 µM (inactive) |
| CO[C@H]1CN(C)C(=O)c2cc(N)ccc2OC[C@H](C)N(Cc2ccc(-c3ccccn3)cc2)C[C@@H]1C | > 100 µM (inactive) |

System: not listed separately
Experiment: as above
Conditions: A549 viability, CellTiter-Glo ATP luminescence, 72 h; at 26 µM (top of the series)

| SMILES | activity change, negative = cytotoxic |
| --- | --- |
| CCCNC(=O)Nc1ccc2c(c1)OC[C@H](C)N(Cc1ccccc1)C[C@H](C)[C@@H](OC)CN(C)C2=O | 0.334% (inactive) |
| CCCC(=O)Nc1ccc2c(c1)OC[C@H](C)N(Cc1ccc(-c3ccccn3)cc1)C[C@H](C)[C@@H](OC)CN(C)C2=O | 6.08% (inactive) |
| CCCC(=O)Nc1ccc2c(c1)OC[C@H](C)N(Cc1ccccc1)C[C@H](C)[C@@H](OC)CN(C)C2=O | -0.093% (inactive) |
| CO[C@H]1CN(C)C(=O)c2ccc(NC(=O)NC(C)C)cc2OC[C@H](C)N(Cc2ccc(-c3ccccn3)cc2)C[C@@H]1C | 3.22% (inactive) |
| CCCNC(=O)Nc1ccc2c(c1)OC[C@H](C)N(Cc1ccc(-c3ccccn3)cc1)C[C@H](C)[C@@H](OC)CN(C)C2=O | -9.23% (inactive) |
| CO[C@H]1CN(C)C(=O)c2ccc(NC(=O)NC(C)C)cc2OC[C@H](C)N(Cc2ccccc2)C[C@@H]1C | 4.59% (inactive) |

Same assay, conditions: A549 viability, CellTiter-Glo ATP luminescence, 72 h; at 50 µM (top of the series)

| SMILES | activity change, negative = cytotoxic |
| --- | --- |
| CO[C@H]1CN(C)C(=O)c2cc(NC(=O)NC(C)C)ccc2OC[C@H](C)N(Cc2cncnc2)C[C@@H]1C | -6.71% (inactive) |
| CO[C@H]1CN(C)C(=O)c2cc(NC(=O)NC(C)C)ccc2OC[C@H](C)N(Cc2ccncc2)C[C@@H]1C | 4.36% (inactive) |
| CO[C@H]1CN(C)C(=O)c2cc(NC(=O)NC(C)C)ccc2OC[C@H](C)N(C(=O)c2ccc(-c3ccccn3)cc2)C[C@@H]1C | -11.3% (inactive) |
| CO[C@H]1CN(C)C(=O)c2cc(NC(=O)NC(C)C)ccc2OC[C@H](C)N(Cc2cccnc2)C[C@@H]1C | 6.13% (inactive) |
| CO[C@H]1CN(C)C(=O)c2cc(NC(=O)NC(C)C)ccc2OC[C@H](C)N(Cc2ccc(F)cc2)C[C@@H]1C | -3.88% (inactive) |
| CO[C@H]1CN(C)C(=O)c2cc(NC(=O)NC(C)C)ccc2OC[C@H](C)NC[C@@H]1C | -2.18% (inactive) |
| CO[C@H]1CN(C)C(=O)c2cc(NC(=O)NC(C)C)ccc2OC[C@H](C)N(C(=O)c2ccccc2)C[C@@H]1C | -11.4% (inactive) |
